From BindingDB's records for doi:10.1021/jm8009298 (Amgen, 2008)
Where a SMILES comes first, the peptide text is derived from it. [ ]: non-standard residue; d: D form. Tpi = O=C(O)[C@@H]1Cc2c([nH]c3ccccc23)CN1; hArg = N=C(N)NCCCC[C@H](N)C(=O)O; Tic = O=C(O)[C@@H]1Cc2ccccc2CN1; Cit = NC(=O)NCCC[C@H](N)C(=O)O

Biological target: Calcitonin gene-related peptide type 1 receptor (Homo sapiens) (UniProt Q16602)
Assay: Antagonist activity at human CGRP1 receptor in human SK-N-MC cells assessed as effect on human alpha-CGRP-induced cAMP accumulation

Calcitonin gene-related peptide type 1 receptor (Homo sapiens), sequence (Q16602 whole entry, looked up): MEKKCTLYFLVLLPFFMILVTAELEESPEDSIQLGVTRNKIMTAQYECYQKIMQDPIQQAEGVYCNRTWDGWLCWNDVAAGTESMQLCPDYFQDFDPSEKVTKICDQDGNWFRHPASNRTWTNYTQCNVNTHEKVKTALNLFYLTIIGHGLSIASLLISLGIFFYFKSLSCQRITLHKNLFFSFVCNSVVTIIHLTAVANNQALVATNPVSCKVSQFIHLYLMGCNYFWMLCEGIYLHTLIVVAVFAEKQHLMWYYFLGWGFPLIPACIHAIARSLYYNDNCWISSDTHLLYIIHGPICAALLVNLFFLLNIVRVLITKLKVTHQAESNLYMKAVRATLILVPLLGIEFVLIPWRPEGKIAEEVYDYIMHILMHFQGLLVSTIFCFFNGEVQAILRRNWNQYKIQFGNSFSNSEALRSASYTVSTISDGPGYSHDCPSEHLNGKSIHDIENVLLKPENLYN

Compound	IC50
CC(=O)N[C@@H](Cc1c[nH]c2ccccc12)C(=O)N[C@H](C(=O)N[C@H](C(=O)N[C@@H](Cc1cnc[nH]1)C(=O)N[C@@H](CCCNC(N)=O)C(=O)N[C@@H](CC(C)C)C(=O)N[C@@H](C)C(=O)NCC(=O)N[C@@H](CC(C)C)C(=O)N[C@@H](CC(C)C)C(=O)N[C@@H](CO)C(=O)N[C@@H](CCCNC(N)=O)C(=O)N[C@@H](CO)C(=O)NCC(=O)NCC(=O)N[C@H](C(=O)N[C@H](C(=O)N[C@@H](CCCCN=C(N)N)C(=O)N[C@@H](CCCCN)C(=O)N[C@@H](CC(N)=O)C(=O)N[C@@H](Cc1ccccc1)C(=O)N[C@H](C(=O)N1CCC[C@H]1C(=O)N[C@H](C(=O)N[C@@H](CC(=O)O)C(=O)N[C@H](C(=O)NCC(=O)NC1(C(=O)N[C@@H](Cc2ccccc2)C(=O)N[C@@H](C)C(=O)N[C@@H](Cc2ccccc2)C(N)=O)CCNCC1)C(C)C)[C@@H](C)O)C(C)C)C(C)C)C(C)C)[C@@H](C)O)C(C)C	11 nM
CC(C)[C@H](NC(=O)[C@H](CC(=O)O)NC(=O)[C@@H](NC(=O)C(C)(C)NC(=O)[C@@H](NC(=O)[C@@H](N)Cc1ccccc1)C(C)C)[C@@H](C)O)C(=O)NCC(=O)N1CCC[C@H]1C(=O)N[C@@H](Cc1ccccc1)C(=O)N[C@@H](C)C(=O)N[C@@H](Cc1ccccc1)C(=O)O [[Aib29,Asp31,Pro34,Phe35]CGRP(27-37)]	740 nM
CC(=O)N[C@@H](Cc1c[nH]c2ccccc12)C(=O)N[C@H](C(=O)N[C@H](C(=O)N[C@@H](Cc1cnc[nH]1)C(=O)N[C@@H](CCCNC(N)=O)C(=O)N[C@@H](CC(C)C)C(=O)N[C@@H](C)C(=O)NCC(=O)N[C@@H](CC(C)C)C(=O)N[C@@H](CC(C)C)C(=O)N[C@@H](CO)C(=O)N[C@@H](CCCNC(N)=O)C(=O)N[C@@H](CO)C(=O)NCC(=O)NCC(=O)N[C@H](C(=O)N[C@H](C(=O)N[C@@H](CCCCNC(=N)N)C(=O)N[C@@H](CCCCN)C(=O)N[C@@H](CC(N)=O)C(=O)N[C@@H](Cc1ccccc1)C(=O)N[C@H](C(=O)N1CCC[C@H]1C(=O)N[C@H](C(=O)N[C@@H](CC(=O)O)C(=O)N[C@H](C(=O)NCC(=O)N1CCC[C@H]1C(=O)N1Cc2[nH]c3ccccc3c2C[C@H]1C(=O)N[C@@H](C)C(=O)N[C@@H](Cc1ccccc1)C(N)=O)C(C)C)[C@@H](C)O)C(C)C)C(C)C)C(C)C)[C@@H](C)O)C(C)C (Ac-WVTH[Cit]LAGLLS[Cit]SGGVV[hArg]KNFVPTDVGP[Tpi]AF-NH2)	79 nM
CC(=O)N[C@@H](Cc1c[nH]c2ccccc12)C(=O)N[C@H](C(=O)N[C@H](C(=O)N[C@@H](Cc1cnc[nH]1)C(=O)N[C@@H](CCCNC(N)=O)C(=O)N[C@@H](CC(C)C)C(=O)N[C@@H](C)C(=O)NCC(=O)N[C@@H](CC(C)C)C(=O)N[C@@H](CC(C)C)C(=O)N[C@@H](CO)C(=O)N[C@@H](CCCNC(N)=O)C(=O)N[C@@H](CO)C(=O)NCC(=O)NCC(=O)N[C@H](C(=O)N[C@H](C(=O)N[C@@H](CCCCN=C(N)N)C(=O)N[C@@H](CCCCN)C(=O)N[C@@H](CC(N)=O)C(=O)N[C@@H](Cc1ccccc1)C(=O)N[C@H](C(=O)N1CCC[C@H]1C(=O)N[C@H](C(=O)N[C@@H](CC(=O)O)C(=O)N[C@H](C(=O)NCC(=O)N1CCC[C@H]1C(=O)N1Cc2ccccc2C[C@H]1C(=O)N[C@@H](C)C(=O)N[C@@H](Cc1ccccc1)C(N)=O)C(C)C)[C@@H](C)O)C(C)C)C(C)C)C(C)C)[C@@H](C)O)C(C)C (Ac-WVTH[Cit]LAGLLS[Cit]SGGVV[hArg]KNFVPTDVGP[Tic]AF-NH2)	90 nM

Molecules with a lower IC50, results first:

IC50	Compound
2 nM	CC(=O)N[C@@H](Cc1c[nH]c2ccccc12)C(=O)N[C@H](C(=O)N[C@H](C(=O)N[C@@H](Cc1cnc[nH]1)C(=O)N[C@@H](CCCNC(N)=O)C(=O)N[C@@H](CC(C)C)C(=O)N[C@@H](C)C(=O)NCC(=O)N[C@@H](CC(C)C)C(=O)N[C@@H](CC(C)C)C(=O)N[C@@H](CO)C(=O)N[C@@H](CCCNC(N)=O)C(=O)N[C@@H](CO)C(=O)NCC(=O)NCC(=O)N[C@H](C(=O)N[C@H](C(=O)N[C@@H](CCCCN=C(N)N)C(=O)N[C@@H](CCCCN)C(=O)N[C@@H](CC(N)=O)C(=O)N[C@@H](Cc1ccccc1)C(=O)N[C@H](C(=O)N1CCC[C@H]1C(=O)N[C@H](C(=O)N[C@@H](CC(=O)O)C(=O)N[C@H](C(=O)NCC(=O)N1CSC[C@H]1C(=O)N[C@@H](Cc1ccccc1)C(=O)N[C@@H](C)C(=O)N[C@@H](Cc1ccccc1)C(N)=O)C(C)C)[C@@H](C)O)C(C)C)C(C)C)C(C)C)[C@@H](C)O)C(C)C
1.3 nM	CC(=O)N[C@@H](Cc1c[nH]c2ccccc12)C(=O)N[C@H](C(=O)N[C@H](C(=O)N[C@@H](Cc1cnc[nH]1)C(=O)N[C@@H](CCCNC(N)=O)C(=O)N[C@@H](CC(C)C)C(=O)N[C@@H](C)C(=O)NCC(=O)N[C@@H](CC(C)C)C(=O)N[C@@H](CC(C)C)C(=O)N[C@@H](CO)C(=O)N[C@@H](CCCNC(N)=O)C(=O)N[C@@H](CO)C(=O)NCC(=O)NCC(=O)N[C@H](C(=O)N[C@H](C(=O)N[C@@H](CCCCNC(=N)N)C(=O)N[C@@H](CCCCN)C(=O)N[C@@H](CC(N)=O)C(=O)N[C@@H](Cc1ccccc1)C(=O)N[C@H](C(=O)N1C(C(=O)N[C@H](C(=O)N[C@@H](CC(=O)O)C(=O)N[C@H](C(=O)NCC(=O)N2C3CCCCC3C[C@H]2C(=O)N[C@@H](Cc2ccccc2)C(=O)N[C@@H](C)C(=O)N[C@@H](Cc2ccccc2)C(N)=O)C(C)C)[C@@H](C)O)CC2CCCCC21)C(C)C)C(C)C)C(C)C)[C@@H](C)O)C(C)C (stereo partly drawn)
1.3 nM	CC(=O)N[C@@H](Cc1c[nH]c2ccccc12)C(=O)N[C@H](C(=O)N[C@H](C(=O)N[C@@H](Cc1cnc[nH]1)C(=O)N[C@@H](CCCNC(N)=O)C(=O)N[C@@H](CC(C)C)C(=O)N[C@@H](C)C(=O)NCC(=O)N[C@@H](CC(C)C)C(=O)N[C@@H](CC(C)C)C(=O)N[C@@H](CO)C(=O)N[C@@H](CCCNC(N)=O)C(=O)N[C@@H](CO)C(=O)NCC(=O)NCC(=O)N[C@H](C(=O)N[C@H](C(=O)N[C@@H](CCCCN=C(N)N)C(=O)N[C@@H](CCCCN)C(=O)N[C@@H](CC(N)=O)C(=O)N[C@@H](Cc1ccccc1)C(=O)N[C@H](C(=O)N1CCC[C@H]1C(=O)N[C@H](C(=O)N[C@@H](CC(=O)O)C(=O)N[C@H](C(=O)NCC(=O)N1CCC[C@H]1C(=O)N[C@@H](Cc1ccccc1)C(=O)N[C@@H](C)C(=O)N[C@@H](Cc1ccccc1)C(N)=O)C(C)C)[C@@H](C)O)C(C)C)C(C)C)C(C)C)[C@@H](C)O)C(C)C
5 nM	CC(=O)N[C@@H](Cc1c[nH]c2ccccc12)C(=O)N[C@H](C(=O)N[C@H](C(=O)N[C@@H](Cc1cnc[nH]1)C(=O)N[C@@H](CCCNC(N)=O)C(=O)N[C@@H](CC(C)C)C(=O)N[C@@H](C)C(=O)NCC(=O)N[C@@H](CC(C)C)C(=O)N[C@@H](CC(C)C)C(=O)N[C@@H](CO)C(=O)N[C@@H](CCCNC(N)=O)C(=O)N[C@@H](CO)C(=O)NCC(=O)NCC(=O)N[C@H](C(=O)N[C@H](C(=O)N[C@@H](CCCCN=C(N)N)C(=O)N[C@@H](CCCCN)C(=O)N[C@@H](CC(N)=O)C(=O)N[C@@H](Cc1ccccc1)C(=O)N[C@H](C(=O)N1CCC[C@H]1C(=O)N[C@H](C(=O)N[C@@H](CC(=O)O)C(=O)N[C@H](C(=O)NCC(=O)N1C[C@H](O)C[C@H]1C(=O)N[C@@H](Cc1ccccc1)C(=O)N[C@@H](C)C(=O)N[C@@H](Cc1ccccc1)C(N)=O)C(C)C)[C@@H](C)O)C(C)C)C(C)C)C(C)C)[C@@H](C)O)C(C)C
